Compound in assay [1]: T1, C[C@H]1CNCCN1c1nccc(-c2noc3c2CCC[C@@]32CCCc3sc(N)c(C#N)c32)n1 [BI-2493]
Particulars: 5 days. The method, then: (§1)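 PRISM pooled barcoded cancer cell line viability screen (Broad Institute) with BI-2493 at 8 doses in threefold dilutions from 0.00457 to 10 µmol/L, 5-day treatment; curves fitted per cell line. IC50 is undefined (placeholder) for resistant lines. AUC is capped at 1, and sensitivity is reported as 1 − AUC.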

Compound in assay [2]: T1, BI-2493
The assay is described as follows: 1 - AUC of viability dose-response curve (sensitivity) (fraction); higher = more sensitive. Particulars: 5 days. The method, then: as §1

As to KKU213_BILIARY_TRACT, the “IC50 of cell viability” value in assay [1] came to 4.97 µM. In addition, the “1 - AUC of viability dose-response curve” value in assay [2] is 0.12.
Turning to KLE_ENDOMETRIUM, the “IC50 of cell viability” value in assay [1] amounted to 4.68 µM. Besides, the “1 - AUC of viability dose-response curve” value in assay [2] is 0.0854.
The corresponding values for KMCH1_BILIARY_TRACT are 9.41 µM and 0.013.
The corresponding values for KMH2_HAEMATOPOIETIC_AND_LYMPHOID_TISSUE are 9.96 µM and 0.00616.
With KMRC1_KIDNEY, the “IC50 of cell viability” value in assay [1] was found to be 8.1 µM. In addition, in assay [2], the “1 - AUC of viability dose-response curve” value came out at 0.0333.
For the test system KMRC3_KIDNEY, the “IC50 of cell viability” value in assay [1] came out at 7 µM. Also, the “1 - AUC of viability dose-response curve” value in assay [2] was found to be 0.0597.
The corresponding values for KMRC20_KIDNEY are 4.73 µM and 0.185.
With “KMS11_HAEMATOPOIETIC_AND_LYMPHOID_TISSUE”, the “IC50 of cell viability” value in assay [1] was 3.13 µM. In assay [2], the “1 - AUC of viability dose-response curve” value came to 0.272.
The corresponding values for “KMS12BM_HAEMATOPOIETIC_AND_LYMPHOID_TISSUE” are 3.71 µM and 0.108.
For the test system “KMS18_HAEMATOPOIETIC_AND_LYMPHOID_TISSUE”, in assay [1], the “IC50 of cell viability” value amounted to 5.38 µM. Also, the “1 - AUC of viability dose-response curve” value in assay [2] was 0.13.
The corresponding values for “KMS21BM_HAEMATOPOIETIC_AND_LYMPHOID_TISSUE” are 9.51 µM and 0.0119.
Take “KMS27_HAEMATOPOIETIC_AND_LYMPHOID_TISSUE”: the “IC50 of cell viability” value in assay [1] is 9 µM. In assay [2], the “1 - AUC of viability dose-response curve” value stood at 0.028.
On to “KMS28BM_HAEMATOPOIETIC_AND_LYMPHOID_TISSUE”, for which the “IC50 of cell viability” value in assay [1] stood at 9.91 µM. Moreover, the “1 - AUC of viability dose-response curve” value in assay [2] is 0.00817.
The corresponding values for KNS42_CENTRAL_NERVOUS_SYSTEM are 6.04 µM and 0.0979.
The corresponding values for KNS60_CENTRAL_NERVOUS_SYSTEM are 9.53 µM and 0.0228.
The corresponding values for KNS62_LUNG are 1.79 µM and 0.271.
Take KNS81_CENTRAL_NERVOUS_SYSTEM: in assay [1], the “IC50 of cell viability” value turned out to be 6.64 µM. Also, the “1 - AUC of viability dose-response curve” value in assay [2] was 0.0832.
As for KON_UPPER_AERODIGESTIVE_TRACT, the “IC50 of cell viability” value in assay [1] worked out at 3.51 µM. Further, in assay [2], the “1 - AUC of viability dose-response curve” value stood at 0.189.
Turning to KOSC2CL343_UPPER_AERODIGESTIVE_TRACT, the “IC50 of cell viability” value in assay [1] came to 5.69 µM. For the same test system, the “1 - AUC of viability dose-response curve” value in assay [2] was found to be 0.0719.
The corresponding values for KP3_PANCREAS are 6.52 µM and 0.133.
In the case of KP4_PANCREAS, the “IC50 of cell viability” value in assay [1] came to 4.92 µM. Also, the “1 - AUC of viability dose-response curve” value in assay [2] stood at 0.189.
The corresponding values for KPNYN_AUTONOMIC_GANGLIA are greater than 10 µM and 0.144.
The corresponding values for KS1_CENTRAL_NERVOUS_SYSTEM are 7.63 µM and 0.0533.
The corresponding values for KU1919_URINARY_TRACT are 9.28 µM and 0.0267.
Take KURAMOCHI_OVARY: the “IC50 of cell viability” value in assay [1] was greater than 10 µM. For the same test system, the “1 - AUC of viability dose-response curve” value in assay [2] is 0.129.
Turning to KYM1_SOFT_TISSUE, the “IC50 of cell viability” value in assay [1] stood at 3.79 µM. In addition, the “1 - AUC of viability dose-response curve” value in assay [2] stood at 0.117.
The corresponding values for KYO1_HAEMATOPOIETIC_AND_LYMPHOID_TISSUE are 9.93 µM and 0.00435.
The corresponding values for KYSE70_OESOPHAGUS are 5.15 µM and 0.163.
The corresponding values for KYSE140_OESOPHAGUS are greater than 10 µM and 0.0648.
For the test system KYSE150_OESOPHAGUS, the “IC50 of cell viability” value in assay [1] stood at 3.68 µM. Also, the “1 - AUC of viability dose-response curve” value in assay [2] turned out to be 0.131.
The corresponding values for KYSE180_OESOPHAGUS are 7.63 µM and 0.0499.
The corresponding values for KYSE270_OESOPHAGUS are 5.56 µM and 0.113.
The corresponding values for KYSE410_OESOPHAGUS are 3.85 µM and 0.15.
As to KYSE510_OESOPHAGUS, the “IC50 of cell viability” value in assay [1] came to 5.11 µM. The “1 - AUC of viability dose-response curve” value in assay [2] worked out at 0.22.
Regarding KYSE520_OESOPHAGUS, in assay [1], the “IC50 of cell viability” value came to 4.02 µM. Moreover, in assay [2], the “1 - AUC of viability dose-response curve” value came to 0.136.
For L363_HAEMATOPOIETIC_AND_LYMPHOID_TISSUE, in assay [1], the “IC50 of cell viability” value came to 7.78 µM. Further, the “1 - AUC of viability dose-response curve” value in assay [2] is 0.041.

Values taken from the supplement of paper PMC11962398.
